Patent US8283352B2, “Solubilization preparation” (Dainippon Sumitomo Pharma Co., Ltd., priority 2005, dated 2012)
Counter-ions that a name gives are not always drawn.

How the values were obtained:
Assay type in all cases: physicochemical
[1] = Solubility of lurasidone or a free form thereof in additives (Table 1), visual check; conditions: for solubility at 30 min: thermodynamic from solid
Procedure: Solid-type additives were studied in 10% aqueous solutions thereof and liquid-type ones were studied in 100% solutions thereof. Specifically, to 10% aqueous solution of solid-type additive or to 100% solution of liquid-type one was added lurasidone or a free form thereof so that a concentration thereof was 10 mg/mL, and the mixture was promoted to be dissolved by an operation such as stirring, heating or sonication. It was confirmed by visual check 30 minutes after the operation whether the mixture was perfectly dissolved. In case that the mixture was perfectly dissolved in a concentration of 10 mg/mL, another amount of lurasidone or a free form thereof was added to be evaluated.

Solubility in water = assay: Solubility in water
[2] = Storage stability of 30 mg/mL solutions, residual ratio by reverse phase HPLC (Table 2); conditions: aqueous solutions using benzyl alcohol, propylene glycol, N,N-dimethylacetamide and lactic acid; one-month storage at 60° C. and 40° C.
Procedure: Solutions comprising lurasidone and a hydrochloride thereof in a concentration of 30 mg/mL were prepared in formulations in Table 2 to be stored under warming conditions (60° C. and 40° C.). After one-month storage, a residual ratio of principal agent was measured by using reverse phase HPLC. […] In other words, the present invention can provide a solution-type preparation with high stability wherein lurasidone and a free form thereof are solubilized at high concentrations.
Column: YMC-Pack AM-312 (5 μm, 6.0 mmφ×150 mm, manufactured by YMC Co., Ltd.)
Detector: ultraviolet absorptiometer (measured wavelength: 230 nm)
Column temperature: constant temperature around 25° C.
Solution A: 0.025% aqueous trifluoroacetic acid solution/acetonitrile mixture (4:1)
Solution B: 0.025% trifluoroacetic acid in acetonitrile solution

O=C1[C@@H]2[C@H]3CC[C@H](C3)[C@@H]2C(=O)N1C[C@@H]1CCCC[C@H]1CN1CCN(c2nsc3ccccc23)CC1 [A free form of lurasidone, N-[4-[4-(1,2-benzisothiazol-3-yl)-1-piperazinyl]-(2R,3R)-2,3-tetramethylene-butyl]-(1′R,2′S,3′R,4′S)-2,3-bicyclo[2,2,1]heptane-dicarboxyimide]
<10000 µg/mL: Solubility ([1]; additive No. 21: Squalane) | Solubility ([1]; additive No. 22: Medium-chain triglyceride) | Solubility ([1]; additive No. 23: Benzyl benzoate) | Solubility ([1]; additive No. 24: Anhydrous ethanol) | Solubility ([1]; additive No. 25: Sorbitan sesquioleate) | Solubility ([1]; additive No. 26: 1,3-Butanediol) | Solubility ([1]; additive No. 27: Dipropylene glycol) | Solubility ([1]; additive No. 28: Triethyleneglycol) | Solubility ([1]; additive No. 29: Isopropyl alcohol) | Solubility ([1]; additive No. 32: Isopropyl myristate) | Solubility ([1]; additive No. 34: Monoethanolamine) | Solubility ([1]; additive No. 35: Diethanolamine) | Solubility ([1]; additive No. 36: Triethanolamine) | Solubility ([1]; additive No. 37: Liquid paraffin) | Solubility ([1]; additive No. 42: Glycol salicylate) | Solubility ([1]; additive No. 44: Triacetin) | Solubility ([1]; additive No. 46: Sesame oil) | Solubility ([1]; additive No. 47: Castor oil) | Solubility ([1]; additive No. 49: Arachis oil) | Solubility ([1]; additive No. 50: Camellia oil) | Solubility ([1]; additive No. 51: Soybean oil) | Solubility ([1]; additive No. 52: Olive oil)
>50000 µg/mL: Solubility ([1]; additive No. 38: Toluene) | Solubility ([1]; additive No. 41: N-Methyl-2-pyrrolidone)

O=C1[C@@H]2[C@H]3CC[C@H](C3)[C@@H]2C(=O)N1C[C@@H]1CCCC[C@H]1CN1CCN(c2nsc3ccccc23)CC1 [Lurasidone, N-[4-[4-(1,2-benzisothiazol-3-yl)-1-piperazinyl]-(2R,3R)-2,3-tetramethylene-butyl]-(1′R,2′S,3′R,4′S)-2,3-bicyclo[2,2,1]heptanedicarboxyimide hydrochloride]
30000 to 100000 µg/mL: solubility at 30 min ([1]; organic solvent or mixture, additive No. 19: Propylene glycol)
stable: stability in aqueous solutions (in words) [2]
less than several: solubility in water (Solubility in water)
> 200000 µg/mL: solubility at 30 min ([1]; organic solvent or mixture, additive No. 30: Benzyl alcohol)
1000 to 10000 µg/mL: solubility at 30 min ([1]; oil or lipid, additive No. 46: Sesame oil) | solubility at 30 min ([1]; oil or lipid, additive No. 47: Castor oil) | solubility at 30 min ([1]; oil or lipid, additive No. 49: Arachis oil) | solubility at 30 min ([1]; oil or lipid, additive No. 50: Camellia oil) | solubility at 30 min ([1]; oil or lipid, additive No. 51: Soybean oil)
< 10000 µg/mL: solubility at 30 min ([1]; aqueous buffer, additive No. 8: Sodium hydrogen carbonate) | solubility at 30 min ([1]; aqueous with cosolvent or surfactant or cyclodextrin, additive No. 1: Citric acid) | solubility at 30 min ([1]; aqueous with cosolvent or surfactant or cyclodextrin, additive No. 2: Sodium citrate) | solubility at 30 min ([1]; aqueous with cosolvent or surfactant or cyclodextrin, additive No. 3: L-Aspartic acid) | solubility at 30 min ([1]; aqueous with cosolvent or surfactant or cyclodextrin, additive No. 4: L-Arginine) | solubility at 30 min ([1]; aqueous with cosolvent or surfactant or cyclodextrin, additive No. 5: Soy lecithin) | solubility at 30 min ([1]; aqueous with cosolvent or surfactant or cyclodextrin, additive No. 6: Polysorbate 80) | solubility at 30 min ([1]; aqueous with cosolvent or surfactant or cyclodextrin, additive No. 7: D-Mannitol) | solubility at 30 min ([1]; aqueous with cosolvent or surfactant or cyclodextrin, additive No. 9: β-Cyclodextrin) | solubility at 30 min ([1]; aqueous with cosolvent or surfactant or cyclodextrin, additive No. 10: Maleic acid) | solubility at 30 min ([1]; aqueous with cosolvent or surfactant or cyclodextrin, additive No. 12: Calcium bromide) | solubility at 30 min ([1]; aqueous with cosolvent or surfactant or cyclodextrin, additive No. 13: Ethylene diamine hydrochloride) | solubility at 30 min ([1]; aqueous with cosolvent or surfactant or cyclodextrin, additive No. 14: Tris) | solubility at 30 min ([1]; aqueous with cosolvent or surfactant or cyclodextrin, additive No. 16: Nicotinic amide) | solubility at 30 min ([1]; aqueous with cosolvent or surfactant or cyclodextrin, additive No. 17: Capric acid) | solubility at 30 min ([1]; oil or lipid, additive No. 11: Ethyl oleate) | solubility at 30 min ([1]; oil or lipid, additive No. 21: Squalane) | solubility at 30 min ([1]; oil or lipid, additive No. 22: Medium-chain triglyceride) | solubility at 30 min ([1]; organic solvent or mixture, additive No. 15: Polyethylene glycol 400) | solubility at 30 min ([1]; organic solvent or mixture, additive No. 18: Concentrated glycerin)
> 100000 µg/mL: solubility at 30 min ([1]; organic solvent or mixture, additive No. 20: Lactic acid)
< 1000 µg/mL: solubility at 30 min ([1]; oil or lipid, additive No. 52: Olive oil)
